For 15 compounds, EC50 results are on record in patent US8987264B2, “1,3,5-triazine derivatives of spiro bicyclic oxalamide-compounds for treatment of hepatitis C” (priority 2012, dated 2015).

The subject of this experiment is HCV pseudoparticles, genotype 1a (H77C) E1 and E2 envelope glycoproteins. The experiment in a line: HCV pseudoparticle infection assay (luciferase reporter, Huh7 cells). Format: cell-based. The conditions noted are these: Hepatitis C virus, Huh-7, 48 h, read-out: EC50 (nM) 1a (H77C), HCV pseudoparticles genotype 1a (H77C), Huh7 cells, luciferase 2 days after infection.

Like-named read-outs stand apart in the source and are kept apart here.

Broadly, the EC50 is the midpoint of the concentration-response curve. For the compound `Cc1cc(NC(=O)C(=O)N2CCC3(CCN(C(=O)c4ccc(Nc5nc(NC6(c7ccc(Cl)cc7)CC6)nc(OCC(F)(F)F)n5)cc4)C3)C2)no1` (stereo not drawn) [Compound 1004], under “class symbol”, the EC50 was in the range of 0.01 to 10 nM.

On to `O=C(C(=O)N1CCC2(CCN(C(=O)c3ccc(Nc4nc(NC5(c6ccc(Cl)cc6)CC5)nc(OCC(F)(F)F)n4)cc3)C2)C1)N1CCCCC1` (stereo not drawn) [Compound 1011], for which the EC50 (class symbol) was 0.01 to 10 nM.

Take `O=C(Nc1ccc(F)cc1F)C(=O)N1CCC2(CCN(C(=O)c3ccc(Nc4nc(NC5(c6ccc(Cl)cc6)CC5)nc(OCC(F)(F)F)n4)cc3)C2)C1` (stereo not drawn) [Compound 1008]: the concentration for a half-maximal effect (EC50) (class symbol) lay in the range of 0.01 to 10 nM.

As for `Cc1nnc(NC(=O)C(=O)N2CCC3(CCN(C(=O)c4ccc(Nc5nc(NC6(c7ccc(Cl)cc7)CC6)nc(OCC(F)(F)F)n5)cc4)C3)C2)s1` (stereo not drawn) [Compound 1015], under “class symbol”, the EC50 lay within 0.01 to 10 nM.

For `O=C(NCc1ccc(F)cc1)C(=O)N1CCC2(CCN(C(=O)c3ccc(Nc4nc(NC5(c6ccc(Cl)cc6)CC5)nc(OCC(F)(F)F)n4)cc3)C2)C1` (stereo not drawn) [Compound 1006], for the setting “class symbol”, the EC50 lay within 0.01 to 10 nM.

In the case of `O=C(Nc1nccs1)C(=O)N1CCC2(CCN(C(=O)c3ccc(Nc4nc(NC5(c6ccc(Cl)cc6)CC5)nc(OCC(F)(F)F)n4)cc3)C2)C1` (stereo not drawn) [Compound 1012], the EC50 (class symbol) fell in the range of 0.01 to 10 nM.

Consider `O=C(Nc1ccccc1)C(=O)N1CCC2(CCN(C(=O)c3ccc(Nc4nc(NC5(c6ccc(Cl)cc6)CC5)nc(OCC(F)(F)F)n4)cc3)C2)C1` (stereo not drawn) [Compound 1005], for which the EC50 (class symbol) lay in the range of 0.01 to 10 nM.

Turning to `O=C(Nc1ccc(F)cc1)C(=O)N1CCC2(CCN(C(=O)c3ccc(Nc4nc(NC5(c6ccc(Cl)cc6)CC5)nc(OCC(F)(F)F)n4)cc3)C2)C1` (stereo not drawn) [Compound 1003], the concentration for a half-maximal effect (EC50) (class symbol) was 0.01 to 10 nM.

For `O=C(C(=O)N1CCC2(CCN(C(=O)c3ccc(Nc4nc(NC5(c6ccc(Cl)cc6)CC5)nc(OCC(F)(F)F)n4)cc3)C2)C1)N1CCc2ccccc2C1` (stereo not drawn) [Compound 1013], the EC50 is 0.01 to 10 nM (class symbol) and 4.86 nM (numeric value).

Regarding `Cc1ccc(NC(=O)C(=O)N2CCC3(CCN(C(=O)c4ccc(Nc5nc(NC6(c7ccc(Cl)cc7)CC6)nc(OCC(F)(F)F)n5)cc4)C3)C2)cc1` (stereo not drawn) [Compound 1007], the EC50 by setting is: (class symbol) 0.01 to 10 nM; (numeric value) 0.255 nM.

On to `NC(=O)C(=O)N1CCC2(CCN(C(=O)c3ccc(Nc4nc(NC5(c6ccc(Cl)cc6)CC5)nc(OCC(F)(F)F)n4)cc3)C2)C1` (stereo not drawn) [Compound 1001], for which the EC50 reads like this: (class symbol) 0.01 to 10 nM; (numeric value) 1.64 nM.

With `CC(C)CNC(=O)C(=O)N1CCC2(CCN(C(=O)c3ccc(Nc4nc(NC5(c6ccc(Cl)cc6)CC5)nc(OCC(F)(F)F)n4)cc3)C2)C1` (stereo not drawn) [Compound 1014], the EC50 (class symbol) fell in the range of 0.01 to 10 nM.

For the compound `O=C(NC1CCCCC1)C(=O)N1CCC2(CCN(C(=O)c3ccc(Nc4nc(NC5(c6ccc(Cl)cc6)CC5)nc(OCC(F)(F)F)n4)cc3)C2)C1` (stereo not drawn) [Compound 1010], for the setting “class symbol”, the EC50 fell in the range of 0.01 to 10 nM.

For the compound `O=C(Nc1cccc(F)c1)C(=O)N1CCC2(CCN(C(=O)c3ccc(Nc4nc(NC5(c6ccc(Cl)cc6)CC5)nc(OCC(F)(F)F)n4)cc3)C2)C1` (stereo not drawn) [Compound 1002], the EC50 (class symbol) lay within 0.01 to 10 nM.

For `O=C(Nc1cc(F)cc(F)c1)C(=O)N1CCC2(CCN(C(=O)c3ccc(Nc4nc(NC5(c6ccc(Cl)cc6)CC5)nc(OCC(F)(F)F)n4)cc3)C2)C1` (stereo not drawn) [Compound 1009], the EC50 (class symbol) was 0.01 to 10 nM.
